From publication PMC9940851, “Seleno Containing Compounds as Potent and Selective Antifungal Agents” (ACS Infectious Diseases, 2022)
Values after ≈ are worked out from the molar mass of the structure shown.

What was measured:
M. globosa ATCC MYA 4612 = test system: T1, M. globosa ATCC MYA 4612; assay: microbe, parasite or virus in culture; details: Malassezia globosa
T1 construct: ATCC MYA 4612
Description: (§1) Inoculum preparations for antifungal assays were performed following the CLSI guidelines for antifungal susceptibility testing of yeasts.[31] Antifungal activity was evaluated on unicellular yeasts Candida albicans ATCC 10231, Candida glabrata ATCC 90030 (DSMZ 11226), Malassezia pachydermatis CDC 16334 (DSMZ 6172), Malassezia globosa ATCC MYA 4612, and Malassezia furfur ATCC 14521. All the fungal strains were stored at −80 °C in cryovials. Then Candida spp. and Malassezia pachydermatis were reactivated in RPMI 1640 broth for 24–48 h at 35 °C. The so obtained fresh cultures were streaked onto Sabouraud dextrose agar and incubated for 24–48 h at 35 °C. Malassezia globosa and furfur were reactivated in modified RPMI 1640 broth[32] for 24–48 h at 35 °C (M. furfur) and 33 °C (M. globosa), and then the cultures were streaked onto Leeming and Notman agar (MLNA) and incubated for 48–72 h at 35 °C for M. furfur and at 33 °C for M. globosa. The fungal inoculum for the testing was prepared by suspending in phosphate buffer (PB) 10 mM pH 7 4–5 colonies of about 1 mm diameter. The fungal suspension was then adjusted to a final optical density of 0.5 McFarland standard (1–5 × 10^6 cells/mL). The compound solutions were tested in a range of concentrations from 0.01 μg/mL to 256 μg/mL, and 50 μL were then added in 96 wells microtiter plates with 50 μL of fungal inoculum and incubated for 24–48 h at 35 °C. Growth and sterility controls were performed. […] Compounds 3a, 3c, 5b, 7a–d, 9c, 11e, 11i, and 14a,b were selected as representatives of the chemical moieties synthesized prior to their screen on yeasts of biomedical relevance such as M. pachydermatis DSMZ 6172, C. albicans ATCC 10231, and C. glabrata ATCC 90030 (DSMZ 11226) strains. The clinical used drugs Ketoconazole, SeS2, and Amphotericin B were included as references (Table 1).

ATCC M. furfur 14521 = test system: T2, ATCC M. furfur 14521; assay: microbe, parasite or virus in culture; details: Malassezia furfur
T2 construct: ATCC 14521
Description: as §1

C. glabrata DSMZ 11226 = test system: T3, C. glabrata DSMZ 11226; assay: microbe, parasite or virus in culture; design: broth microdilution MIC, M. pachydermatis and Candida, 35 °C; details: Nakaseomyces glabratus, DSMZ11226
T3 construct: DSMZ 11226 (ATCC 90030)
Description: as §1

[1] = test system: T4, M. pachydermatis DSMZ 6172; assay: microbe, parasite or virus in culture; design: broth microdilution MIC, M. pachydermatis and Candida, 35 °C; details: Malassezia pachydermatis, DSMZ6172
T4 construct: DSMZ 6172 (CDC 16334)
Description: as §1

C. albicans = assay: microbe, parasite or virus in culture; design: broth microdilution MIC, M. pachydermatis and Candida, 35 °C; details: Candida albicans
Description: as §1

MpaCA = target: T5, MpaCA (Malassezia pachydermatis, UniProt A0A0M8MPA4); assay: stopped-flow CO2 hydrase assay; assay type: biochemical
T5 construct: gene Malapachy_3798
T5 sequence (A0A0M8MPA4 1-242): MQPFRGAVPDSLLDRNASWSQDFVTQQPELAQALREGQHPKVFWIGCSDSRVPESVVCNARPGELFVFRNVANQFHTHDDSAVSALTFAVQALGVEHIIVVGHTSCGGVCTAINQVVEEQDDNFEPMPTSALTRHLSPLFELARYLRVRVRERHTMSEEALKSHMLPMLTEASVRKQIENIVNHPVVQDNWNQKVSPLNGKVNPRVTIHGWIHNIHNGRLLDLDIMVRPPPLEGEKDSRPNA

MgCA = target: T6, MgCA (Malassezia globosa, UniProt A8Q1N3); assay: stopped-flow CO2 hydrase assay; assay type: biochemical
T6 construct: gene MGL_1814
T6 sequence (A8Q1N3 1-241): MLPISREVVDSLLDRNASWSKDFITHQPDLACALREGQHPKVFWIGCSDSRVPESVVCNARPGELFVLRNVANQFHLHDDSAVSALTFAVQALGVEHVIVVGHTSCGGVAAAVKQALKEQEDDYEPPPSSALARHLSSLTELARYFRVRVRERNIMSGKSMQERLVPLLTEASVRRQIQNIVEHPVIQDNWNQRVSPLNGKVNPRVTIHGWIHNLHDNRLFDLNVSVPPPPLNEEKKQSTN
Procedure, shortened: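 Ki was derived by nonlinear least-squares fitting using the Cheng-Prusoff equation. Recombinant carbonic anhydrase at 5–12 nM was first preincubated with inhibitor at room temperature for 15 min. CO2 hydration at 1.7–17 mM CO2 was tracked by stopped-flow over 10–100 s with 0.2 mM phenol red read at 557 nm, in 20 mM Hepes pH 7.4 containing 20 mM Na2SO4. Initial rates were taken from no fewer than six traces with uncatalysed rates subtracted, and at least three determinations were averaged.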

Compound | MIC (M. globosa ATCC MYA 4612) | MIC (ATCC M. furfur 14521) | MIC (C. glabrata DSMZ 11226) | MIC [1] | MIC (C. albicans) | Ki (MpaCA) | Ki (MgCA)
CC(=O)N1CCN(c2ccc(OC[C@@H]3CO[C@@](Cn4ccnc4)(c4ccc(Cl)cc4Cl)O3)cc2)CC1 (racemic) [Ketoconazole] | 0.25 µg/mL (≈ 0.47 µM) | 0.25 µg/mL (≈ 0.47 µM) | 96 ± 37 µg/mL (≈ 181 µM) | 0.03 µg/mL (≈ 0.0565 µM) | 0.05 ± 0.02 µg/mL (≈ 0.0941 µM) | – | –
NS(=O)(=O)c1ccc(NC(=[Se])Nc2ccccc2)cc1 [3a] | 4.3 ± 1.97 µg/mL (≈ 12.1 µM) | 0.5 µg/mL (≈ 1.41 µM) | 10.7 µg/mL (≈ 30.2 µM) | 0.5 µg/mL (≈ 1.41 µM) | 64 µg/mL (≈ 181 µM) | 0.514 µM | 0.599 µM
NS(=O)(=O)c1ccc(NC(=[Se])Nc2ccccc2F)cc1 [3c] | > 256 µg/mL | 16 µg/mL (≈ 43 µM) | 64 µg/mL (≈ 172 µM) | 64 µg/mL (≈ 172 µM) | 341 µg/mL (≈ 917 µM) | 0.152 µM | 0.721 µM
NS(=O)(=O)c1ccc(CCNC(=[Se])Nc2ccccc2F)cc1 [5b] | 9 ± 5.9 µg/mL (≈ 22.5 µM) | 1 µg/mL (≈ 2.5 µM) | 3.3 µg/mL (≈ 8.24 µM) | 0.25 µg/mL (≈ 0.624 µM) | 107 µg/mL (≈ 267 µM) | 0.149 µM | 0.633 µM
NS(=O)(=O)c1ccc(NC(=[Se])NC(=O)c2ccccc2)cc1 [7a] | 14.7 ± 3.26 µg/mL (≈ 38.5 µM) | 0.85 ± 0.36 µg/mL (≈ 2.22 µM) | 32 µg/mL (≈ 83.7 µM) | 0.5 µg/mL (≈ 1.31 µM) | 128 µg/mL (≈ 335 µM) | 44.8 µM | 3.85 µM
NS(=O)(=O)c1ccc(NC(=[Se])NC(=O)c2ccc3c(c2)OCO3)cc1 [7b] | 16 ± 8.76 µg/mL (≈ 37.5 µM) | 0.5 µg/mL (≈ 1.17 µM) | 16 µg/mL (≈ 37.5 µM) | 0.5 µg/mL (≈ 1.17 µM) | 128 µg/mL (≈ 300 µM) | 20.4 µM | 4.86 µM
NS(=O)(=O)c1ccc(NC(=[Se])NC(=O)c2cc(Br)cc(OC(F)(F)F)c2)cc1 [7c] | 128 µg/mL (≈ 235 µM) | 4 µg/mL (≈ 7.34 µM) | 8 µg/mL (≈ 14.7 µM) | 0.5 µg/mL (≈ 0.917 µM) | 64 µg/mL (≈ 117 µM) | 83.5 µM | 4.3 µM
CC(=O)Oc1ccccc1C(=O)NC(=[Se])Nc1ccc(S(N)(=O)=O)cc1 [7d] | 256 µg/mL (≈ 581 µM) | 2.7 ± 1.15 µg/mL (≈ 6.13 µM) | 64 µg/mL (≈ 145 µM) | 3.33 ± 1.15 µg/mL (≈ 7.56 µM) | 128 µg/mL (≈ 291 µM) | 66.8 µM | 5.88 µM
NS(=O)(=O)c1ccc(CCNC(=[Se])NC(=O)c2ccc3c(c2)OCO3)cc1 [9c] | 37.3 ± 13.1 µg/mL (≈ 82.1 µM) | 2 ± 1.37 µg/mL (≈ 4.4 µM) | > 256 µg/mL | 1 µg/mL (≈ 2.2 µM) | > 256 µg/mL | 55.9 µM | 1.78 µM
O=C(NC(=[Se])Nc1ccc(S(=O)(=O)Nc2nccs2)cc1)c1ccccc1 [10a, N-((4-(N-(Thiazol-2-yl)sulfamoyl)phenyl)carbamoselenoyl)benzamide] | 128 µg/mL (≈ 275 µM) | 8 µg/mL (≈ 17.2 µM) | – | 1 µg/mL (≈ 2.15 µM) | – | 42.9 µM | 52.8 µM
O=C(NC(=[Se])Nc1ccc(S(=O)(=O)Nc2nccs2)cc1)c1cc(Br)cc(OC(F)(F)F)c1 [10b, 3-Bromo-N-((4-(N-(thiazol-2-yl)sulfamoyl)phenyl)carbamoselenoyl)-5-(trifluoromethoxy)benzamide] | 341 ± 148 µg/mL (≈ 543 µM) | 427 ± 148 µg/mL (≈ 679 µM) | – | 16 µg/mL (≈ 25.5 µM) | – | 85.3 µM | 9.26 µM
CCCCCCCc1ccc(C(=O)NC(=[Se])Nc2ccc(S(=O)(=O)Nc3nccs3)cc2)cc1 [10c, 4-Heptyl-N-((4-(N-(thiazol-2-yl)sulfamoyl)phenyl)carbamoselenoyl)benzamide] | > 256 µg/mL | 4 µg/mL (≈ 7.1 µM) | – | 0.8 ± 0.29 µg/mL (≈ 1.42 µM) | – | 91.9 µM | 60.6 µM
O=C(NC(=[Se])Nc1ccc(S(=O)(=O)Nc2nccs2)cc1)c1ccc([N+](=O)[O-])cc1 [10d, 4-Nitro-N-((4-(N-(thiazol-2-yl)sulfamoyl)phenyl)carbamoselenoyl)benzamide] | 26.7 ± 9.2 µg/mL (≈ 52.3 µM) | 85.3 ± 37 µg/mL (≈ 167 µM) | – | 1.8 ± 1.89 µg/mL (≈ 3.53 µM) | – | 92.8 µM | 8.77 µM
O=C(NC(=[Se])Nc1ccc(S(=O)(=O)Nc2nccs2)cc1)c1ccc(F)cc1 [10e, 4-Fluoro-N-((4-(N-(thiazol-2-yl)sulfamoyl)phenyl)carbamoselenoyl)benzamide] | 128 µg/mL (≈ 265 µM) | 2.3 ± 2.31 µg/mL (≈ 4.76 µM) | – | 1 µg/mL (≈ 2.07 µM) | – | 80.3 µM | 8.9 µM
O=C(NC(=[Se])Nc1ccc(S(=O)(=O)Nc2nccs2)cc1)c1ccc(I)cc1 [10f, 4-Iodo-N-((4-(N-(thiazol-2-yl)sulfamoyl)phenyl)carbamoselenoyl)benzamide] | > 256 µg/mL | 5.3 ± 2.31 µg/mL (≈ 8.96 µM) | – | 2 µg/mL (≈ 3.38 µM) | – | 74.3 µM | 10.2 µM
O=C(NC(=[Se])Nc1ccc(S(=O)(=O)Nc2nccs2)cc1)c1ccc(Cl)cc1 [10g, 4-Chloro-N-((4-(N-(thiazol-2-yl)sulfamoyl)phenyl)carbamoselenoyl)benzamide] | > 256 µg/mL | 64 µg/mL (≈ 128 µM) | – | 1.3 ± 0.58 µg/mL (≈ 2.6 µM) | – | 66.7 µM | 36.1 µM
NS(=O)(=O)c1ccc(O)c(NC(=[Se])NC(=O)c2ccccc2)c1 [11a] | 128 µg/mL (≈ 321 µM) | 2.7 ± 1.15 µg/mL (≈ 6.78 µM) | – | 1 µg/mL (≈ 2.51 µM) | – | 13.4 µM | 4.1 µM
CCCCCCCc1ccc(C(=O)NC(=[Se])Nc2cc(S(N)(=O)=O)ccc2O)cc1 [11b] | 256 µg/mL (≈ 516 µM) | 5.3 ± 2.31 µg/mL (≈ 10.7 µM) | – | 8 µg/mL (≈ 16.1 µM) | – | 78 µM | 4.93 µM
NS(=O)(=O)c1ccc(O)c(NC(=[Se])NC(=O)c2ccc([N+](=O)[O-])cc2)c1 [11c, N-((2-Hydroxy-5-sulfamoylphenyl)carbamoselenoyl)-4-nitrobenzamide] | 128 µg/mL (≈ 289 µM) | 5.3 ± 2.31 µg/mL (≈ 12 µM) | – | 0.5 µg/mL (≈ 1.13 µM) | – | 91.2 µM | 5.02 µM
NS(=O)(=O)c1ccc(O)c(NC(=[Se])NC(=O)c2ccc(I)cc2)c1 [11d, N-((2-Hydroxy-5-sulfamoylphenyl)carbamoselenoyl)-4-iodobenzamide] | 128 µg/mL (≈ 244 µM) | 10.7 ± 4.62 µg/mL (≈ 20.4 µM) | – | 13.3 ± 4.6 µg/mL (≈ 25.4 µM) | – | 7.5 µM | 2.93 µM
NS(=O)(=O)c1ccc(O)c(NC(=[Se])NC(=O)c2ccc(Cl)cc2)c1 [11f, 4-Chloro-N-((2-hydroxy-5-sulfamoylphenyl)carbamoselenoyl)benzamide] | 256 µg/mL (≈ 592 µM) | 4 µg/mL (≈ 9.24 µM) | – | 0.5 µg/mL (≈ 1.16 µM) | – | 54.2 µM | 5.13 µM
NS(=O)(=O)c1ccc(O)c(NC(=[Se])NC(=O)c2ccc(Br)cc2F)c1 [11g, 4-Bromo-2-fluoro-N-((2-hydroxy-5-sulfamoylphenyl)carbamoselenoyl)benzamide] | 256 µg/mL (≈ 517 µM) | 5.3 ± 2.31 µg/mL (≈ 10.7 µM) | – | 3.33 ± 1.15 µg/mL (≈ 6.72 µM) | – | 70.9 µM | 6.01 µM
NS(=O)(=O)c1ccc(O)c(NC(=[Se])NC(=O)c2ccc(CCl)cc2)c1 [11h, 4-(Chloromethyl)-N-((2-hydroxy-5-sulfamoylphenyl)carbamoselenoyl)benzamide] | > 256 µg/mL | 74.7 ± 48.9 µg/mL (≈ 167 µM) | – | 4 µg/mL (≈ 8.95 µM) | – | 76.6 µM | 6.49 µM
C[C@@H]1[C@H](O)[C@@H](C)/C=C/C=C/C=C/C=C/C=C/C=C/C=C/[C@H](O[C@@H]2O[C@H](C)[C@@H](O)[C@H](N)[C@@H]2O)C[C@@H]2O[C@](O)(C[C@@H](O)C[C@@H](O)[C@H](O)CC[C@@H](O)C[C@@H](O)CC(=O)O[C@H]1C)C[C@H](O)[C@H]2C(=O)O [Amphotericin B] | 125 µg/mL (≈ 135 µM) | 1.95 µg/mL (≈ 2.11 µM) | 0.98 µg/mL (≈ 1.06 µM) | 0.43 ± 0.12 µg/mL (≈ 0.465 µM) | 0.24 ± 1 µg/mL (≈ 0.26 µM) | – | –
